Data as given in patent publication US20220071996A1, “ORAL FORMULATIONS OF BRANAPLAM” (NOVARTIS AG, priority 2018, published 2022).
≈ marks a conversion by molar mass, not a printed value. Where two headings read alike, the source gives them in different places.

Experiment: solubility of branaplam in selected excipients
Assay type: physicochemical
Settings: pH 4, aqueous with cosolvent or surfactant or cyclodextrin, thermodynamic from solid
Description: Solubility of branaplam was evaluated in excipients, other than cyclodextrin, such as Cremophor RH40, Tween 80, PG, PEG300, and glycerol. These excipients and concentrations were selected as they are suitable for paediatric formulations. None of the tested excipients was able to support development of a formulation comprising branaplam at a concentration high enough (i.e. about 2 mg/ml or higher) to keep the dose volume in a suitable range (Table 6).
Solubility of branaplam was evaluated in excipients, other than cyclodextrin, such as Cremophor RH40, Tween 80, PG, PEG300, and glycerol. These excipients and concentrations were selected as they are suitable for paediatric formulations. None of the tested excipients was able to support development of a formulation comprising branaplam at a concentration high enough (i.e. about 2 mg/ml or higher) to keep the dose volume in a suitable range (Table 5a).
Solubility of branaplam was measured as follows: stock solutions for the excipients at target concentrations were prepared using milli-Q water and adjusted using pH 4.0 buffer. […] Suspensions were stirred for 24 hours (using a magnetic stirrer) ensuring sufficient swirling and monitoring the temperature. The suspensions were filtered through 0.45 μm nominal pore size filter (e.g. using a PES syringe), and the concentration of branaplam in the filtrate was measured using HPLC (high performance liquid chromatography). The measurements were performed in duplicate and average of the values are reported.

For `CC1(C)CC(Oc2ccc(-c3ccc(-c4cn[nH]c4)cc3O)nn2)CC(C)(C)N1` [branaplam, 5-(1H-pyrazol-4-yl)-2-(6-((2,2,6,6-tetramethylpiperidin-4-yl)oxy)pyridazin-3-yl)phenol], the solubility at 24 h (2 °C, in Cremophor RH 40 15.0% (w/v), pH 4.0 buffer, 2-8° C., read-out: Solubility (mg/mL) 2-8° C.) was 1.19 mg/mL (≈ 3020 µM), the solubility at 24 h (25 °C, in Cremophor RH 40 15.0% (w/v), pH 4.0 buffer, RT, read-out: Solubility (mg/mL) RT) was 1.32 mg/mL (≈ 3350 µM) and the solubility at 24 h (Cremophor RH 40 1.0% (w/v) aqueous solution in pH 4.0 buffer, 2 °C, in Cremophor RH 40 1.0% (w/v), pH 4.0 buffer, 2-8° C., read-out: Solubility (mg/mL) 2-8° C.) was 0.17 mg/mL (≈ 432 µM). For the same molecule, the solubility at 24 h (Cremophor RH 40 1.0% (w/v) aqueous solution in pH 4.0 buffer, 25 °C, in Cremophor RH 40 1.0% (w/v), pH 4.0 buffer, RT, read-out: Solubility (mg/mL) RT) was 0.28 mg/mL (≈ 712 µM), the solubility at 24 h (Cremophor RH 40 3.5% (w/v) aqueous solution in pH 4.0 buffer, 2 °C, in Cremophor RH 40 3.5% (w/v), pH 4.0 buffer, 2-8° C., read-out: Solubility (mg/mL) 2-8° C.) was 0.44 mg/mL (≈ 1120 µM) and the solubility at 24 h (Cremophor RH 40 3.5% (w/v) aqueous solution in pH 4.0 buffer, 25 °C, in Cremophor RH 40 3.5% (w/v), pH 4.0 buffer, RT, read-out: Solubility (mg/mL) RT) was 0.53 mg/mL (≈ 1350 µM). It also gave a solubility at 24 h (Cremophor RH 40 7.0% (w/v) aqueous solution in pH 4.0 buffer, 2 °C, in Cremophor RH 40 7.0% (w/v), pH 4.0 buffer, 2-8° C., read-out: Solubility (mg/mL) 2-8° C.) of 0.71 mg/mL (≈ 1800 µM), a solubility at 24 h (Cremophor RH 40 7.0% (w/v) aqueous solution in pH 4.0 buffer, 25 °C, in Cremophor RH 40 7.0% (w/v), pH 4.0 buffer, RT, read-out: Solubility (mg/mL) RT) of 0.84 mg/mL (≈ 2130 µM) and a solubility at 24 h (aqueous excipient solution, 2 °C, in Glycerol 5.0% (w/w), 2-8° C., read-out: Solubility (mg/mL) 2-8° C.) of 0.2 mg/mL (≈ 508 µM). It also gave a solubility at 24 h (aqueous excipient solution, 2 °C, in Glycerol 10.0% (w/w), 2-8° C., read-out: Solubility (mg/mL) 2-8° C.) of 0.19 mg/mL (≈ 483 µM), a solubility at 24 h (aqueous excipient solution, 2 °C, in PEG 300 5.0% (w/w), 2-8° C., read-out: Solubility (mg/mL) 2-8° C.) of 0.27 mg/mL (≈ 686 µM) and a solubility at 24 h (aqueous excipient solution, 2 °C, in PEG 300 10.0% (w/w), 2-8° C., read-out: Solubility (mg/mL) 2-8° C.) of 0.34 mg/mL (≈ 864 µM). For the same molecule, the solubility at 24 h (aqueous excipient solution, 2 °C, in PEG 300 25.0% (w/w), 2-8° C., read-out: Solubility (mg/mL) 2-8° C.) was 0.87 mg/mL (≈ 2210 µM), the solubility at 24 h (aqueous excipient solution, 2 °C, in PEG 400 5.0% (w/w), 2-8° C., read-out: Solubility (mg/mL) 2-8° C.) was 0.21 mg/mL (≈ 534 µM) and the solubility at 24 h (aqueous excipient solution, 2 °C, in PEG 400 10.0% (w/w), 2-8° C., read-out: Solubility (mg/mL) 2-8° C.) was 0.45 mg/mL (≈ 1140 µM). It also gave a solubility at 24 h (aqueous excipient solution, 2 °C, in PEG 400 25.0% (w/w), 2-8° C., read-out: Solubility (mg/mL) 2-8° C.) of 0.93 mg/mL (≈ 2360 µM), a solubility at 24 h (aqueous excipient solution, 2 °C, in Propylene glycol 5.0% (w/w), 2-8° C., read-out: Solubility (mg/mL) 2-8° C.) of 0.16 mg/mL (≈ 407 µM) and a solubility at 24 h (aqueous excipient solution, 2 °C, in Propylene glycol 10.0% (w/w), 2-8° C., read-out: Solubility (mg/mL) 2-8° C.) of 0.18 mg/mL (≈ 457 µM). For the same molecule, the solubility at 24 h (aqueous excipient solution, 2 °C, in Propylene glycol 25.0% (w/w), 2-8° C., read-out: Solubility (mg/mL) 2-8° C.) was 0.42 mg/mL (≈ 1070 µM), the solubility at 24 h (aqueous excipient solution, 2 °C, in Tween 80 0.5% (w/w), 2-8° C., read-out: Solubility (mg/mL) 2-8° C.) was 0.16 mg/mL (≈ 407 µM) and the solubility at 24 h (aqueous excipient solution, 2 °C, in Tween 80 0.8% (w/w), 2-8° C., read-out: Solubility (mg/mL) 2-8° C.) was 0.22 mg/mL (≈ 559 µM). For the same molecule, the solubility at 24 h (aqueous excipient solution, 2 °C, in Tween 80 1.5% (w/w), 2-8° C., read-out: Solubility (mg/mL) 2-8° C.) was 0.29 mg/mL (≈ 737 µM), the solubility at 24 h (aqueous excipient solution, 2 °C, in Tween 80 5.0% (w/w), 2-8° C., read-out: Solubility (mg/mL) 2-8° C.) was 0.73 mg/mL (≈ 1860 µM) and the solubility at 24 h (aqueous excipient solution, 25 °C, in Glycerol 5.0% (w/w), RT, read-out: Solubility (mg/mL) RT) was 0.18 mg/mL (≈ 457 µM). It also gave a solubility at 24 h (aqueous excipient solution, 25 °C, in Glycerol 10.0% (w/w), RT, read-out: Solubility (mg/mL) RT) of 0.22 mg/mL (≈ 559 µM), a solubility at 24 h (aqueous excipient solution, 25 °C, in PEG 300 5.0% (w/w), RT, read-out: Solubility (mg/mL) RT) of 0.39 mg/mL (≈ 991 µM) and a solubility at 24 h (aqueous excipient solution, 25 °C, in PEG 300 10.0% (w/w), RT, read-out: Solubility (mg/mL) RT) of 0.64 mg/mL (≈ 1630 µM). For the same molecule, the solubility at 24 h (aqueous excipient solution, 25 °C, in PEG 300 25.0% (w/w), RT, read-out: Solubility (mg/mL) RT) was 1.61 mg/mL (≈ 4090 µM), the solubility at 24 h (aqueous excipient solution, 25 °C, in PEG 400 5.0% (w/w), RT, read-out: Solubility (mg/mL) RT) was 0.39 mg/mL (≈ 991 µM) and the solubility at 24 h (aqueous excipient solution, 25 °C, in PEG 400 10.0% (w/w), RT, read-out: Solubility (mg/mL) RT) was 0.63 mg/mL (≈ 1600 µM). For the same molecule, the solubility at 24 h (aqueous excipient solution, 25 °C, in PEG 400 25.0% (w/w), RT, read-out: Solubility (mg/mL) RT) was 1.47 mg/mL (≈ 3740 µM), the solubility at 24 h (aqueous excipient solution, 25 °C, in Propylene glycol 5.0% (w/w), RT, read-out: Solubility (mg/mL) RT) was 0.27 mg/mL (≈ 686 µM) and the solubility at 24 h (aqueous excipient solution, 25 °C, in Propylene glycol 10.0% (w/w), RT, read-out: Solubility (mg/mL) RT) was 0.37 mg/mL (≈ 940 µM). For the same molecule, the solubility at 24 h (aqueous excipient solution, 25 °C, in Propylene glycol 25.0% (w/w), RT, read-out: Solubility (mg/mL) RT) was 0.94 mg/mL (≈ 2390 µM), the solubility at 24 h (aqueous excipient solution, 25 °C, in Tween 80 0.5% (w/w), RT, read-out: Solubility (mg/mL) RT) was 0.25 mg/mL (≈ 635 µM) and the solubility at 24 h (aqueous excipient solution, 25 °C, in Tween 80 0.8% (w/w), RT, read-out: Solubility (mg/mL) RT) was 0.28 mg/mL (≈ 712 µM). For the same molecule, the solubility at 24 h (aqueous excipient solution, 25 °C, in Tween 80 1.5% (w/w), RT, read-out: Solubility (mg/mL) RT) was 0.41 mg/mL (≈ 1040 µM), the solubility at 24 h (aqueous excipient solution, 25 °C, in Tween 80 5.0% (w/w), RT, read-out: Solubility (mg/mL) RT) was 0.89 mg/mL (≈ 2260 µM) and the solubility at 24 h (aqueous excipient stock solution, 2 °C, in Cremophor RH 40 1.0% (w/w), 2-8° C., read-out: Solubility (mg/mL) 2-8° C.) was 0.17 mg/mL (≈ 432 µM). The solubility at 24 h (aqueous excipient stock solution, 2 °C, in Cremophor RH 40 3.5% (w/w), 2-8° C., read-out: Solubility (mg/mL) 2-8° C.) was 0.44 mg/mL (≈ 1120 µM).
